Consider three molecules from publication PMC3089676 (Journal of the American Chemical Society, 2010).

What all share (format): biochemical
One experiment deals with T1, HcyF (WS1006) (Wolinella succinogenes, UniProt Q7M9D2).
T1 sequence (Q7M9D2 1-272): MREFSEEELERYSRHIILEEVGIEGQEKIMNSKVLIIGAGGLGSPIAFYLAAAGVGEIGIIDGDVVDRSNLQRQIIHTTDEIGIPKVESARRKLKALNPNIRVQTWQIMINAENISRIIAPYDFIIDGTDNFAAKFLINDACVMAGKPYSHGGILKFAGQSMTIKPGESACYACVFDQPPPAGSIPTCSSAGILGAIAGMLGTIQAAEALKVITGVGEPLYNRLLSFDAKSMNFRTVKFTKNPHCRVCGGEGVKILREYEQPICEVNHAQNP
The experiment in a line: HPLC detection of AMP formation. The following applies: HcyS-Ala and HcyD present; MgCl2; room temperature.

The next experiment deals with T2, MetY (WS1012) (Wolinella succinogenes, UniProt Q7M9C8).
T2 sequence (Q7M9C8 1-407): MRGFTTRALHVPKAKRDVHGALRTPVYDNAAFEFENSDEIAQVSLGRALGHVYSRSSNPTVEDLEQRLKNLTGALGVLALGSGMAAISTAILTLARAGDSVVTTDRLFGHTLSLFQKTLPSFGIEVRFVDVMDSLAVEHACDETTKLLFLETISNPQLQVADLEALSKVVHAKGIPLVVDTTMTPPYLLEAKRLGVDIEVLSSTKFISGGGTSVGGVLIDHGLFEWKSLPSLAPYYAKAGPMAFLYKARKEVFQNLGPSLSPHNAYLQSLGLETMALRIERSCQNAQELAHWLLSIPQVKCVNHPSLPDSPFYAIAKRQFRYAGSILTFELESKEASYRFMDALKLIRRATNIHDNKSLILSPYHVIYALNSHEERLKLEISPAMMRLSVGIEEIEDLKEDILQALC
Description: MALDI-MS of HcyS-homocysteine formation. The following applies: HcyS-COSH as sulfur donor; room temperature.

The target of another experiment is T3, HcyD (WS1005) (Wolinella succinogenes, UniProt Q7MRV8).
T3 sequence (Q7MRV8 1-130): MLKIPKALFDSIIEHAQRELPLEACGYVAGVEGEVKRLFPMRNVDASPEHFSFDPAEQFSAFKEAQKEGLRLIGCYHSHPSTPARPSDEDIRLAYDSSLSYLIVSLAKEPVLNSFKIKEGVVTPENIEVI
Description: 1H-NMR of released alanine. The conditions noted are these: released from HcyS-Ala (protein substrate); pH 8.0; room temperature.

`Nc1ncnc2c1ncn2[C@@H]1O[C@H](COP(=O)(O)OP(=O)(O)OP(=O)(O)O)[C@@H](O)[C@H]1O` [ATP]: the “HPLC detection of AMP formation” value at HcyF (WS1006) was “AMP formation was dependent on HcyF, HcyS-Ala and HcyD”. `CC(=O)OCC[C@H](N)C(=O)O` [O-acetyl-L-homoserine]: the “MALDI-MS of HcyS-homocysteine formation” value at MetY (WS1012) is given as “catalyzed the reaction of HcyS-COSH with O-acetyl-L-homoserine to form HcyS-Homocysteine”. For `C[C@H](N)C(=O)O` [alanine], the “1H-NMR of released alanine” value on HcyD (WS1005) was 1H-NMR analysis of the small-molecule product confirmed the release of alanine from HcyS-Ala.
